Measurements: patent publication US20020187977A1, “Methods for restoring cognitive function following systemic stress” (priority 2001, published 2002)
Square brackets hold non-standard residues; d marks the D form. Peptide text beside a SMILES is read from it. * marks the point of attachment. ξ: configuration not given here. PhAc = O=C(Cc1ccccc1)*; ξP = O=C(O)C1CCCN1

Experiments:
[1] = Phase I clinical trials, plasma concentration after oral administration; type: in vivo, human; conditions: oral administration of the 20 mg/day dose
Method: Fourteen healthy young volunteers were orally administered 20 mg/day of compound 2 for 28 days in two Phase I clinical trials. 34 patients with mild to moderate cognitive disturbance were orally administered doses of up to 30 mg/day of compound 2 for 28 days.
After oral administration of the 20 mg/day dose, peak plasma concentrations of 25-38 ng/mL were observed 15-30 minutes after dosing.

[2] = Preliminary study of oral bioavailability in four volunteers; type: in vivo; conditions: humans
[3] = tested on: patients with cognitive disturbances secondary to cerebrovascular and traumatic brain injury; test: Four-week open-label Phase II clinical trial of efficacy (MMSE, OCS, CCSE); type: in vivo, human; conditions: 10 mg orally t.i.d. for four weeks, 20 patients with mild cognitive disturbance
Method: The efficacy of 10 mg of compound 2 administered orally t.i.d. was investigated in a four-week open-label Phase II clinical trial at two centers. A total of 20 patients with cognitive disturbances secondary to cerebrovascular and traumatic brain injury were orally administered compound 2 during a Phase II clinical trial at a dose of 10 mg t.i.d. for a period of four weeks. At study entry, patients fulfilled specific criteria for mild cognitive disturbance.
Improvement on several tests, including the Mini Mental State Evaluation (MMSE) (Folstein et al., Psychiatric Research, 12, 189-198 (1975)), the Overall Clinical Impression Scale (OCS), which is a system developed by the National Institute of Mental Health: 12-CGI Clinical Global Impression ECDEU Assessment Manual for Psychopharmacology, E. Guyo, ed., Rockville Md., (217-222) (1976), and the Cognitive Capacity Screening Exam (CCSE) (Jacobs et al., Annals of Internal Medicine, 86, 40-46 (1977).

CCOC(=O)CNC(=O)C1CCCN1C(=O)Cc1ccccc1 (stereo not shown) [compound 2] (PhAc-[ξP]-Gly-OEt)
peak plasma concentrations [1]: 25 to 38 ng/mL | time of peak plasma concentrations after dosing [1]: 15 to 30 min | oral bioavailability [2]: orally bioavailable | treated patients who met the definition of efficacy response (statistically measured improvement in one or more of the tests by the end of the study) [3]: over 75%
